Patent US11504349B2, “Composition for preventing or treating TNF-related diseases, containing novel derivative as active ingredient, and method for inhibiting TNF activity by using same” (ILAB, priority 2017, dated 2022)

How the values were obtained:
[1] = molecular target: TNF (Homo sapiens, UniProt P01375); experiment: TNF-neutralization bioassay: TNF-induced cell death of LM cells (MTT); type: cell-based; conditions: compound 50 μM, TNF 20 ng/ml, actinomycin D, LM cells, 24 hours
Experimental: First, the addition of recombinant TNF to mouse fibroblast LM cells induces cell death, and thus, by using the same, the TNF-neutralization bioassay was constructed. In other words, LM cells were pretreated with TNF (20 ng/ml) and the compounds synthesized in the above examples at various concentrations (5×10^4 cells/well), and a sensitizer actinomycin D ([…]) was added, and cultured in a CO2 incubator for 24 hours, and then the MTT assay was carried out. At this time, 10 μl of MTT (5 mg/ml stock) was added, reacted for 4 hours, and then dissolved in DMSO to measure the absorbance at 570 nm. First, the TNF cell death inhibition/neutralization action of TNF-target expected compounds at single concentration (50 or 10 μM) was measured. Second, IC50 values were determined by treating with the compounds having an excellent effect at different concentrations. The % inhibition of TNF was calculated using the following formula: % inhibition of TNF=(OD value of a group treated with TNF and compound−OD value of TNF treated group/(OD value of TNF untreated group−OD value of TNF treated group)×100.
IC50 values were statistically analyzed using Prism 6 (GraphPad) (IC50: 50% inhibitory concentration, CC50: 50% cytotoxic concentration).

Sequence of TNF (P01375 77-233 limits assumed): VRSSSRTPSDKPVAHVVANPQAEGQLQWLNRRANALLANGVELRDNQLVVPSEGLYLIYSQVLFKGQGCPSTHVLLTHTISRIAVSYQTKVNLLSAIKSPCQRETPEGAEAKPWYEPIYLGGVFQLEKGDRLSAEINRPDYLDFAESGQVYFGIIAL

| melting point | Compound | inhibition at 50 µM [1] |
| --- | --- | --- |
| 178 to 181 °C | Cc1ccc2c(=O)c(C(=O)O)c(-c3cccc(F)c3)oc2c1 [Example 42, 2-(3-fluorophenyl)-3-carboxy-7-methyl-(4H)-4-benzopyranone] | 23% |
| 220 to 222 °C | Cc1ccc2c(=O)c(C(=O)O)c(-c3ccc(Cl)cc3)oc2c1 [Example 69, 2-(4-chlorophenyl)-3-carboxy-7-methyl-(4H)-4-benzopyranone] | 14.6% |
| 156 to 158 °C | Cc1ccc2c(=O)c(C(=O)O)c(-c3cc(F)ccc3F)oc2c1 [Example 59, 2-(2,5-difluorophenyl)-3-carboxy-7-methyl-(4H)-4-benzopyranone] | 32.3% |
| 222 to 223 °C | Cc1ccc2oc(-c3ccc(F)c(F)c3)c(C(=O)O)c(=O)c2c1 [Example 66, 2-(3,4-difluorophenyl)-3-carboxy-6-methyl-(4H)-4-benzopyranone] | 37% |
| 238 to 240 °C | Cc1ccc2oc(-c3cc(F)cc(F)c3)c(C(=O)O)c(=O)c2c1 [Example 49, 2-(3,5-difluorophenyl)-3-carboxy-6-methyl-(4H)-4-benzopyranone] | 37.7% |
| 202 to 205 °C | O=C(O)c1c(-c2ccco2)oc2ccccc2c1=O [Example 18, 2-(2-furanyl)-3-carboxy-(4H)-4-benzopyranone] | 48.6% |
| 227 to 229 °C | Cc1cccc2c(=O)c(C(=O)O)c(-c3cccc(F)c3)oc12 [Example 41, 2-(3-fluorophenyl)-3-carboxy-8-methyl-(4H)-4-benzopyranone] | 37.2% |
| 179 to 181 °C | Cc1cccc(-c2oc3cc(Cl)ccc3c(=O)c2C(=O)O)c1 [Example 28, 2-(3-methylphenyl)-3-carboxy-7-chloro-(4H)-4-benzopyranone] | 34.9% |
| 205 to 207 °C | COc1ccc2oc(-c3ccco3)c(C(=O)O)c(=O)c2c1 [Example 4, 2-(2-furanyl)-3-carboxy-6-methoxy-(4H)-4-benzopyranone] | 24.6% |
| 133 to 135 °C | O=C(O)c1c(-c2ccccc2Cl)oc2ccccc2c1=O [Example 11, 2-(2-chlorophenyl)-3-carboxy-(4H)-4-benzopyranone] | 60.6% |
| 195 to 197 °C | COc1cccc2c(=O)c(C(=O)O)c(-c3ccco3)oc12 [Example 2, 2-(2-furanyl)-3-carboxy-8-methoxy-(4H)-4-benzopyranone] | 46.6% |
| 196 to 198 °C | COc1cccc2c(=O)c(C(=O)O)c(-c3cccs3)oc12 [Example 12, 2-(2-thiophenyl)-3-carboxy-8-methoxy-(4H)-4-benzopyranone] | 62.5% |
| 210 to 212 °C | COc1ccc(-c2oc3c(C)cccc3c(=O)c2C(=O)O)cc1OC [Example 37, 2-(3,4-dimethoxyphenyl)-3-carboxy-8-methyl-(4H)-4-benzopyranone] | 33.4% |
| ≥ 120 °C | Cc1ccc2oc(-c3cc(F)ccc3F)c(C(=O)O)c(=O)c2c1 [Example 60, 2-(2,5-difluorophenyl)-3-carboxy-6-methyl-(4H)-4-benzopyranone] | 28.1% |
| 167 to 169 °C | Cc1cccc2c(=O)c(C(=O)O)c(-c3cccc(F)c3F)oc12 [Example 52, 2-(2,3-difluorophenyl)-3-carboxy-8-methyl-(4H)-4-benzopyranone] | 18.5% |
| 214 to 215 °C | Cc1ccc2oc(-c3cccc(F)c3)c(C(=O)O)c(=O)c2c1 [Example 43, 2-(3-fluorophenyl)-3-carboxy-6-methyl-(4H)-4-benzopyranone] | 19.4% |

| melting point | Compound | inhibition at 50 µM [1] |
| --- | --- | --- |
| 226 to 227 °C | COc1ccc(-c2oc3cc(Cl)ccc3c(=O)c2C(=O)O)cc1OC [Example 39, 2-(3,4-dimethoxyphenyl)-3-carboxy-7-chloro-(4H)-4-benzopyranone] | 24.5% |
| 214 to 215 °C | COc1ccc2c(=O)c(C(=O)O)c(-c3cccc(F)c3)oc2c1 [Example 1, 2-(3-fluorophenyl)-3-carboxy-7-methoxy-(4H)-4-benzopyranone] | 39.1% |
| 217 to 219 °C | Cc1cccc2c(=O)c(C(=O)O)c(-c3ccc(Cl)cc3)oc12 [Example 68, 2-(4-chlorophenyl)-3-carboxy-8-methyl-(4H)-4-benzopyranone] | 15.8% |
| 243 to 244 °C | Cc1cccc2c(=O)c(C(=O)O)c(-c3cc(F)cc(F)c3)oc12 [Example 47, 2-(3,5-difluorophenyl)-3-carboxy-8-methyl-(4H)-4-benzopyranone] | 21.4% |
| 205 to 207 °C | COc1ccc2c(=O)c(C(=O)O)c(-c3cccs3)oc2c1 [Example 13, 2-(2-thiophenyl)-3-carboxy-7-methoxy-(4H)-4-benzopyranone] | 55.9% |
| 205 to 206 °C | Cc1cccc2c(=O)c(C(=O)O)c(-c3cccs3)oc12 [Example 31, 2-(2-thiophenyl)-3-carboxy-8-methyl-(4H)-4-benzopyranone] | 24.8% |
| 120 to 122 °C | Cc1ccc2oc(-c3cccc(F)c3F)c(C(=O)O)c(=O)c2c1 [Example 54, 2-(2,3-difluorophenyl)-3-carboxy-6-methyl-(4H)-4-benzopyranone] | 26.5% |
| 153 to 155 °C | Cc1ccc2oc(-c3cccs3)c(C(=O)O)c(=O)c2c1 [Example 33, 2-(2-thiophenyl)-3-carboxy-6-methyl-(4H)-4-benzopyranone] | 20.7% |
| 175 to 176 °C | O=C(O)c1c(-c2cccs2)oc2ccccc2c1=O [Example 15, 2-(2-thiophenyl)-3-carboxy-(4H)-4-benzopyranone] | 47.5% |
| 183 to 184 °C | COc1ccc2c(=O)c(C(=O)O)c(-c3cccc(C)c3)oc2c1 [Example 6, 2-(3-methylphenyl)-3-carboxy-7-methoxy-(4H)-4-benzopyranone] | 46% |
| 192 to 195 °C | COc1cccc2c(=O)c(C(=O)O)c(-c3cccc(C)c3)oc12 [Example 5, 2-(3-methylphenyl)-3-carboxy-8-methoxy-(4H)-4-benzopyranone] | 34.4% |
| 232 to 233 °C | O=C(O)c1c(-c2cccs2)oc2cc(Cl)ccc2c1=O [Example 34, 2-(2-thiophenyl)-3-carboxy-7-chloro-(4H)-4-benzopyranone] | 21.7% |
| 237 to 238 °C | COc1ccc(-c2oc3ccccc3c(=O)c2C(=O)O)cc1OC [Example 8, 2-(3,4-dimethoxyphenyl)-3-carboxy-(4H)-4-benzopyranone] | 24.3% |
| 162 to 164 °C | Cc1cccc(-c2oc3ccccc3c(=O)c2C(=O)O)c1 [Example 19, 2-(3-methylphenyl)-3-carboxy-(4H)-4-benzopyranone] | 48.3% |
| 130 to 132 °C | COc1ccc2c(=O)c(C(=O)O)c(-c3ccccc3Cl)oc2c1 [Example 10, 2-(2-chlorophenyl)-3-carboxy-7-methoxy-(4H)-4-benzopyranone] | 45.6% |
